Converted amounts (≈) assume the structure as drawn.
Tests used:
[1] = tested on: Mycobacterium tuberculosis; experiment: Antitubercular activity against Mycobacterium tuberculosis H37Ra after 5 days by micro Alamar blue essay; format: functional; conditions: 120 h
[2] = tested on: Mycobacterium tuberculosis; experiment: Antitubercular activity against Mycobacterium tuberculosis H37Rv after 30 days by agar microdilution method; format: functional

| Compound | MIC [1] | MIC [2] |
| --- | --- | --- |
| COC1=C(OC)/C(=C/Cn2ccnc2)OC1=O | > 12.5 µg/mL | > 25 µg/mL |
| COC1=C(OC)C(=CCn2cnc3ccccc32)OC1=O | > 12.5 µg/mL | > 25 µg/mL |
| COC1=C(OC)/C(=C/Cn2cnc3c(N)ncnc32)OC1=O | > 12.5 µg/mL | > 25 µg/mL |
| NNC(=O)c1ccncc1 [ISONIAZID] | – | 0.65 µg/mL (≈ 4.74 µM) |
| COC1=C(OC)C(O)(CCn2ccnc2)N(Cc2ccccc2)C1=O (centres undefined) | > 12.5 µg/mL | > 25 µg/mL |
